# In US20030143189A1, “Therapy for topical diseases” (priority 2001, published 2003):
# Test system: plantar warts
# Assay: Treatment of plantar warts on a patient's feet with in situ polymeric film versus freezing
# Type: in vivo, human
# Procedure: A patient presents to a dermatologist with two similar plantar warts on the soles of their left and right feet. The wart on the right foot is treated by freezing with liquid nitrogen.
smiles,measurement,setting,value
N#N [liquid nitrogen],pain caused by the treatment (freeze burn),plantar wart on sole of foot,makes walking on the foot painful for several days
same,time until the wart resolves,"plantar wart on sole of foot, film re-applied every 3-4 days",3 weeks
same,return of the wart after resolution,"plantar wart, film treatment continued two weeks after resolution",has returned after two months
